The supplement of paper PMC10307832

How the values were obtained:
Assay in all cases: relative viability (nuclei count vs DMSO), 5 days (fraction); higher = more cells survive
[1] = compound: COc1cc2ncn(-c3cc(OCc4ccccc4C(F)(F)F)c(C(N)=O)s3)c2cc1OC + C[C@@H](Oc1cc(-c2cnn(C3CCNCC3)c2)cnc1N)c1c(Cl)ccc(F)c1Cl [Crizotinib] (partner 1 µM)
Procedure, shortened: (§1)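 Lung cancer cell lines in 1536-well plates were dosed by pin tool the day after seeding, either with one drug alone or with a fixed anchor-drug dose plus five library-drug doses (not always all listed) in √10 steps. After 5 days, cells were fixed and their nuclei stained in one step (final 0.05% Triton X-100, 1% formaldehyde, 1 ug/ml Hoechst), then counted on 4× images. Relative viability is the nuclei count in treated wells divided by that in vehicle wells. Values are medians of duplicate plates.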

[2] = compound: COc1cc2ncn(-c3cc(OCc4ccccc4C(F)(F)F)c(C(N)=O)s3)c2cc1OC + COc1cccc2cc(-c3nc([C@H]4CC[C@H](C(=O)O)CC4)n4ncnc(N)c34)[nH]c12 [OSI-027] (partner 0.5 µM)
Procedure, shortened: as §1

[3] = compound: COc1cc2ncn(-c3cc(OCc4ccccc4C(F)(F)F)c(C(N)=O)s3)c2cc1OC + C[C@]1(O)C[C@@H](c2nc(-c3ccc4ccc(-c5ccccc5)nc4c3)c3c(N)nccn32)C1 [Linsitinib] (partner 1 µM)
Procedure, shortened: as §1

[4] = compound: COc1cc2ncn(-c3cc(OCc4ccccc4C(F)(F)F)c(C(N)=O)s3)c2cc1OC + Cc1cc(Nc2cc(N3CCN(C)CC3)nc(Sc3ccc(NC(=O)C4CC4)cc3)n2)n[nH]1 [Tozasertib] (partner 0.1 µM)
Procedure, shortened: as §1

NCI-H1437 gave a relative viability ([1]; first compound 0.05 µM) of 1.03, a relative viability ([1]; first compound 0.1581 µM) of 0.812 and a relative viability ([1]; first compound 0.5 µM) of 0.659. It also gave a relative viability ([1]; first compound 1.581 µM) of 0.164, a relative viability ([1]; first compound 5 µM) of 0.101 and a relative viability ([2]; first compound 0.05 µM) of 0.958. For the same cell line, the relative viability ([2]; first compound 0.1581 µM) was 0.79, the relative viability ([2]; first compound 0.5 µM) was 0.298 and the relative viability ([2]; first compound 1.581 µM) was 0.142. It also gave a relative viability ([2]; first compound 5 µM) of 0.118, a relative viability ([3]; first compound 0.05 µM) of 1.09 and a relative viability ([3]; first compound 0.1581 µM) of 1.01. For the same cell line, the relative viability ([3]; first compound 0.5 µM) was 0.11, the relative viability ([3]; first compound 1.581 µM) was 0.1 and the relative viability ([3]; first compound 5 µM) was 0.09. For the same cell line, the relative viability ([4]; first compound 0.05 µM) was 0.457, the relative viability ([4]; first compound 0.1581 µM) was 0.456 and the relative viability ([4]; first compound 0.5 µM) was 0.377. It also gave a relative viability ([4]; first compound 1.581 µM) of 0.354 and a relative viability ([4]; first compound 5 µM) of 0.251.
In the case of NCI-H2009, the relative viability ([1]; first compound 0.05 µM) is reported as 1.01, the relative viability ([1]; first compound 0.1581 µM) is reported as 0.825 and the relative viability ([1]; first compound 0.5 µM) is reported as 0.445. The relative viability ([1]; first compound 1.581 µM) was 0.208, the relative viability ([1]; first compound 5 µM) was 0.253 and the relative viability ([2]; first compound 0.05 µM) was 0.487. The relative viability ([2]; first compound 0.1581 µM) was 0.56, the relative viability ([2]; first compound 0.5 µM) was 0.209 and the relative viability ([2]; first compound 1.581 µM) was 0.176. It also gave a relative viability ([2]; first compound 5 µM) of 0.135, a relative viability ([3]; first compound 0.05 µM) of 1.19 and a relative viability ([3]; first compound 0.1581 µM) of 1.11. It also gave a relative viability ([3]; first compound 0.5 µM) of 0.918, a relative viability ([3]; first compound 1.581 µM) of 0.208 and a relative viability ([3]; first compound 5 µM) of 0.22. The relative viability ([4]; first compound 0.05 µM) was 0.625, the relative viability ([4]; first compound 0.1581 µM) was 0.625 and the relative viability ([4]; first compound 0.5 µM) was 0.353. The relative viability ([4]; first compound 1.581 µM) was 0.301 and the relative viability ([4]; first compound 5 µM) was 0.227.
In the case of NCI-H1651, the relative viability ([1]; first compound 0.05 µM) is reported as 0.9, the relative viability ([1]; first compound 0.1581 µM) is reported as 0.84 and the relative viability ([1]; first compound 0.5 µM) is reported as 0.775. The relative viability ([1]; first compound 1.581 µM) was 0.631, the relative viability ([1]; first compound 5 µM) was 0.332 and the relative viability ([2]; first compound 0.05 µM) was 0.762. It also gave a relative viability ([2]; first compound 0.1581 µM) of 0.737, a relative viability ([2]; first compound 0.5 µM) of 0.594 and a relative viability ([2]; first compound 1.581 µM) of 0.145. The relative viability ([2]; first compound 5 µM) was 0.0994, the relative viability ([3]; first compound 0.05 µM) was 1 and the relative viability ([3]; first compound 0.1581 µM) was 1.14. For the same cell line, the relative viability ([3]; first compound 0.5 µM) was 0.528, the relative viability ([3]; first compound 1.581 µM) was 0.117 and the relative viability ([3]; first compound 5 µM) was 0.0945. For the same cell line, the relative viability ([4]; first compound 0.05 µM) was 0.89, the relative viability ([4]; first compound 0.1581 µM) was 0.706 and the relative viability ([4]; first compound 0.5 µM) was 0.314. It also gave a relative viability ([4]; first compound 1.581 µM) of 0.182 and a relative viability ([4]; first compound 5 µM) of 0.155.
LCLC-103H was tested, and the relative viability ([1]; first compound 0.05 µM) was 0.999, the relative viability ([1]; first compound 0.1581 µM) was 1.11 and the relative viability ([1]; first compound 0.5 µM) was 0.851. The relative viability ([1]; first compound 1.581 µM) was 0.523, the relative viability ([1]; first compound 5 µM) was 0.267 and the relative viability ([2]; first compound 0.05 µM) was 0.495. The relative viability ([2]; first compound 0.1581 µM) was 0.538, the relative viability ([2]; first compound 0.5 µM) was 0.405 and the relative viability ([2]; first compound 1.581 µM) was 0.249. The relative viability ([2]; first compound 5 µM) was 0.12, the relative viability ([3]; first compound 0.05 µM) was 1.21 and the relative viability ([3]; first compound 0.1581 µM) was 1.09. The relative viability ([3]; first compound 0.5 µM) was 0.841, the relative viability ([3]; first compound 1.581 µM) was 0.53 and the relative viability ([3]; first compound 5 µM) was 0.344. It also gave a relative viability ([4]; first compound 0.05 µM) of 0.395, a relative viability ([4]; first compound 0.1581 µM) of 0.457 and a relative viability ([4]; first compound 0.5 µM) of 0.33. It also gave a relative viability ([4]; first compound 1.581 µM) of 0.252 and a relative viability ([4]; first compound 5 µM) of 0.217.
NCI-H1666 gave a relative viability ([1]; first compound 0.05 µM) of 0.917, a relative viability ([1]; first compound 0.1581 µM) of 0.913 and a relative viability ([1]; first compound 0.5 µM) of 0.606. For the same cell line, the relative viability ([1]; first compound 1.581 µM) was 0.289, the relative viability ([1]; first compound 5 µM) was 0.326 and the relative viability ([2]; first compound 0.05 µM) was 0.895. For the same cell line, the relative viability ([2]; first compound 0.1581 µM) was 0.778, the relative viability ([2]; first compound 0.5 µM) was 0.543 and the relative viability ([2]; first compound 1.581 µM) was 0.362. For the same cell line, the relative viability ([2]; first compound 5 µM) was 0.366, the relative viability ([3]; first compound 0.05 µM) was 0.821 and the relative viability ([3]; first compound 0.1581 µM) was 0.953. It also gave a relative viability ([3]; first compound 0.5 µM) of 0.37, a relative viability ([3]; first compound 1.581 µM) of 0.219 and a relative viability ([3]; first compound 5 µM) of 0.248. It also gave a relative viability ([4]; first compound 0.05 µM) of 0.569, a relative viability ([4]; first compound 0.1581 µM) of 0.507 and a relative viability ([4]; first compound 0.5 µM) of 0.388. For the same cell line, the relative viability ([4]; first compound 1.581 µM) was 0.343 and the relative viability ([4]; first compound 5 µM) was 0.39.
NCI-H1734 was tested, and the relative viability ([1]; first compound 0.05 µM) was 0.656, the relative viability ([1]; first compound 0.1581 µM) was 0.616 and the relative viability ([1]; first compound 0.5 µM) was 0.36. The relative viability ([1]; first compound 1.581 µM) was 0.239, the relative viability ([1]; first compound 5 µM) was 0.14 and the relative viability ([2]; first compound 0.05 µM) was 0.619. It also gave a relative viability ([2]; first compound 0.1581 µM) of 0.688, a relative viability ([2]; first compound 0.5 µM) of 0.489 and a relative viability ([2]; first compound 1.581 µM) of 0.26. It also gave a relative viability ([2]; first compound 5 µM) of 0.194, a relative viability ([3]; first compound 0.05 µM) of 0.946 and a relative viability ([3]; first compound 0.1581 µM) of 0.956. The relative viability ([3]; first compound 0.5 µM) was 0.644, the relative viability ([3]; first compound 1.581 µM) was 0.309 and the relative viability ([3]; first compound 5 µM) was 0.215. For the same cell line, the relative viability ([4]; first compound 0.05 µM) was 0.272, the relative viability ([4]; first compound 0.1581 µM) was 0.245 and the relative viability ([4]; first compound 0.5 µM) was 0.226. The relative viability ([4]; first compound 1.581 µM) was 0.224 and the relative viability ([4]; first compound 5 µM) was 0.17.
Work on EPLC-272H yielded a relative viability ([1]; first compound 0.05 µM) of 0.86, a relative viability ([1]; first compound 0.1581 µM) of 0.709 and a relative viability ([1]; first compound 0.5 µM) of 0.323. It also gave a relative viability ([1]; first compound 1.581 µM) of 0.0912, a relative viability ([1]; first compound 5 µM) of 0.134 and a relative viability ([2]; first compound 0.1581 µM) of 0.277. It also gave a relative viability ([2]; first compound 0.5 µM) of 0.225, a relative viability ([2]; first compound 1.581 µM) of 0.163 and a relative viability ([2]; first compound 5 µM) of 0.136. The relative viability ([3]; first compound 0.05 µM) was 1.12, the relative viability ([3]; first compound 0.1581 µM) was 1.15 and the relative viability ([3]; first compound 0.5 µM) was 0.533. The relative viability ([3]; first compound 1.581 µM) was 0.11, the relative viability ([3]; first compound 5 µM) was 0.11 and the relative viability ([4]; first compound 0.1581 µM) was 0.306. The relative viability ([4]; first compound 0.5 µM) was 0.169, the relative viability ([4]; first compound 1.581 µM) was 0.148 and the relative viability ([4]; first compound 5 µM) was 0.147.
NCI-H2023 showed a relative viability ([1]; first compound 0.05 µM) of 0.605, a relative viability ([1]; first compound 0.1581 µM) of 0.67 and a relative viability ([1]; first compound 0.5 µM) of 0.424. It also gave a relative viability ([1]; first compound 1.581 µM) of 0.138, a relative viability ([1]; first compound 5 µM) of 0.0906 and a relative viability ([2]; first compound 0.05 µM) of 0.323. It also gave a relative viability ([2]; first compound 0.1581 µM) of 0.391, a relative viability ([2]; first compound 0.5 µM) of 0.185 and a relative viability ([2]; first compound 1.581 µM) of 0.0955. It also gave a relative viability ([2]; first compound 5 µM) of 0.0617, a relative viability ([3]; first compound 0.05 µM) of 0.593 and a relative viability ([3]; first compound 0.1581 µM) of 0.769. It also gave a relative viability ([3]; first compound 0.5 µM) of 0.49, a relative viability ([3]; first compound 1.581 µM) of 0.123 and a relative viability ([3]; first compound 5 µM) of 0.0804. The relative viability ([4]; first compound 0.05 µM) was 0.24, the relative viability ([4]; first compound 0.1581 µM) was 0.341 and the relative viability ([4]; first compound 0.5 µM) was 0.164. The relative viability ([4]; first compound 1.581 µM) was 0.132 and the relative viability ([4]; first compound 5 µM) was 0.0834.
